The EC50 is the concentration giving half of the maximal effect. By GI50 is commonly meant the concentration giving 50% growth inhibition. Broadly, the IC50 is the concentration that inhibits the measured activity by half.

Read-outs that look alike come from different tables or passages of the source.

This is an account of results in publication PMC6961122 (Bioorganic & Medicinal Chemistry, 2020).

The test system of test [1] is U87 cells. In words: Cell viability assay (PrestoBlue, 5 d) in U87 glioma cells. The class given is cell-based. Particulars: Homo sapiens, U-87 MG, 120 h, library screen, 5 d treatment, mean of three independent experiments in triplicates, read-out: EC50 U87 ± SEM. The method, then:
(§1) The antiproliferative activity of a total of 100 compounds was tested against U87 and T98 glioma cell lines, using TMZ[3] and the Topoisomerase I inhibitor SN-38[18] as positive controls. Cells were treated with the library members for 5 d at three different concentrations (3, 30 and 300 µM) and cell viability determined using the PrestoBlue reagent. Half-maximal effective concentration (EC50) values were calculated from the corresponding dose-response curves and plotted in Fig. 2a as a heatmap to facilitate data analysis, with black meaning no activity and dark to light green to yellow transitions indicating decreasing EC50 values (=increasing potencies). Table 1 of the Suppl. Data contains the corresponding EC50 values ± SEM.
(§2) INK128 and SN-38 were used as positive controls. […] Structurally, these derivatives differed in the size of the alkyl group of the N1 position and the presence or absence of an oxygen atom in that moiety (see Suppl. Data).
(§3) U87 and T98 cells (ATCC) were cultured in DMEM (Gibco), supplemented with 10% (v/v) FBS (Gibco) and 2 mM L-Glutamine (Gibco) in a standard incubator (95% humidity, 5% CO2), and subcultured twice per week through trypsinization. G317 patient-derived glioma cells were established by the Glioma Cellular Genetics Resource (gcgr.org.uk) funded by Cancer Research UK. Ethics approval for use of patient-derived cells and early access confirmation to reagents from the Glioma Cellular Genetics Resource assured that all ethical issues according to UK legislation are fulfilled. G317 were cultured in DMEM/HAMS-F12 (Sigma) supplemented with 1.5 g L^−1 D-(+)-Glucose (Sigma), MEM non-essential aminoacids (Gibco), 0.015% (w/v) Penicillin-Streptomycin (Gibco), 0.012% (w/v) BSA (Gibco), 0.1 mM β-mercaptoethanol (Gibco), B27 (Gibco) and N2 supplements (Gibco). Cells were detached using accutase solution (Sigma) and subcultured once per week. Before adding to the cells, medium was supplemented with 10 ng ml^−1 mouse EGF (Preprotech), 10 ng ml^−1 human FGF (Preprotech), and 1 µg ml^−1 Laminin (Sigma).
(§4) 1 × 10^3 U87 cells/well, 5 × 10^2 T98 cells/well, 1 × 10^4 G317 cells/well, 1 × 10^4 HBVP cells/well and 1 × 10^4 bEnd3 cells/well were seeded in 96-well plates. After 48 h in culture, cells were treated with the inhibitors for 5 d. For GI50 determination, the viability of a triplicate sample of each experiment before treatment was measured with the PrestoBlue Reagent (Invitrogen), to establish a basepoint 0% of growth. […] ZIP Synergy scores were obtained with Synergy finder.[22] Viability percentage, EC50 and GI50 values were obtained using GraphPad Prism version 8.0.0 for Windows, GraphPad Software, San Diego, California USA, www.graphpad.com.

For test [2], the system named is T98 cells. In words: Cell viability assay (PrestoBlue, 5 d) in T98 glioma cells. Conditions: Homo sapiens, T98, 120 h, library screen, 5 d treatment, mean of three independent experiments in triplicates, read-out: EC50 T98 ± SEM. The class given is cell-based. As for the experimental part:
as §1, §2, §3, §4

For test [3], the system named is G317 patient-derived glioma cells. Kind of test: Growth inhibition (GI50, PrestoBlue, 5 d) in patient-derived glioma cells G317. The test is classed as cell-based, human. Conditions: 5 d treatment, growth related to t=0 and DMSO, extrapolated from sigmoidal dose-response curve; for GI50: read-out: GI50 (50% of growth inhibition) in G317. The method, then:
Cells were treated with each inhibitor at concentrations ranging from 1 to 10,000 nM and PrestoBlue assay used at day 5 to detect viability. […] Data are means ± SEM of 3 independent experiments in triplicates.
as §3, §4
Table S2 . GI 50 values (nM) calculated for eCF309 , eCF311 , eCF312 , eCF324 , eCF325 and controls
Cells were treated with 10, 3, 1 µM,
300, 100, 30, 10, 3, 1, 0 nM of each inhibitor during 5 d. Cell growth (PrestoBlue) was related to t=0 (before
drug treatment), and GI 50 values were extrapolated from their corresponding sigmoidal dose-response curve

In test [4] the test system is mTOR. More on the design: method as in earlier work. Particulars: recombinant kinase; previously obtained kinase profiling data; cited from earlier work.
Test [5] concerns PI3Kα. Also on record: method as in earlier work. Conditions: recombinant kinase; previously obtained kinase profiling data; cited from earlier work.
Test [6] relates to U87 cells. In words: Cell viability assay (PrestoBlue, 5 d) in U87 glioma cells. The test is classed as cell-based. Particulars: PrestoBlue day 5; for activity (EC50) of novel compounds in U87, in words: 1 to 30,000 nM, Fig. 7.
Test [7] relates to T98 cells. In words: Cell viability assay (PrestoBlue, 5 d) in T98 glioma cells. Particulars: PrestoBlue day 5; for activity (EC50) of novel compounds in T98, in words: 1 to 30,000 nM, Fig. 7. The test is classed as cell-based.
Test [8] deals with G317 spheroids. Kind of test: 3D spheroids assay, G317 spheroid area. The test is classed as cell-based, human. Particulars: pre-formed spheroids; 0.01–10 µM for 8 days. The method, then: To test the compounds under conditions that better represent the tumour microenvironment, G317 cells were cultured in 3D and pre-formed spheroids treated with eCF309, eCF324 and the positive controls at a range of concentrations (0.01–10 µM) for 8 days.
Fig. 6 (a) Images of G317 spheroids on day 10. Spheroids were treated with 10 μM of each inhibitor during 8 days, images were acquired using ImageXpress. Scale bar = 100 μm. (b) Area of G317 patient derived spheroids at day 10. Spheroid area was calculated with a custom pipeline on CellProfiler. Data are mean ± SEM of 6 independent spheroids from two different cultures, ***P < 0.001, **P < 0.01 compared to DMSO controls (two-way ANOVA, Tukey post hoc test).
4 × 10^3 G317 cells were seeded in an ultra-low attachment round bottom 96-well plate, centrifuged at 1000g, 4 °C for 10 min and allowed to form spheroids for 2 days. Spheroids were then incubated with the inhibitors at 4 concentrations ranging from 10 nM to 10 µM. Spheroids were imaged at day 10 using ImageXpress (Molecular Devices LLC) and processed with ImageJ.[25] Spheroid area was calculated with a custom pipeline on CellProfiler.[26]

[9] abbreviates: Homo sapiens, Glioma cell, 120 h.
[10] abbreviates: repeat for most potent hits, 7-point half-log dose-response 1 to 1,000 nM.

With `CCOC(Cn1nc(-c2ccc3oc(N)nc3c2)c2c(N)ncnc21)OCC` [eCF309], the figures for the EC50 in test [1] and in test [2] were 129 ± 19 nM and 128 ± 22 nM, respectively. The GI50 was 64.9 nM in test [3] and 65 nM in test [3] (setting [9]). Moreover, the IC50 in test [4] is 15 nM; in test [5] it was 981 nM.
Regarding `Nc1ncnc2c1c(-c1cnc3[nH]ccc3c1)nn2CC1CCCC1` [eDB002], the “activity (EC50) of novel compounds in U87, in words” value in test [6] is given as “high activity”. Further, the “activity (EC50) of novel compounds in T98, in words” value in test [7] is “high activity”.
Turning to `Nc1nc2cc(-c3nn(CC4CCCC4)c4ncnc(N)c34)ccc2o1` [eCF324], the EC50 in test [1] stood at 16 ± 3 nM; in test [2], 11 ± 3 nM; in test [6] (Homo sapiens, U-87 MG, 120 h, repeat for most potent hits, 7-point half-log dose-response 1 to 1,000 nM) it was 13 nM; in test [7] (Homo sapiens, T98, 120 h, repeat for most potent hits, 7-point half-log dose-response 1 to 1,000 nM), 10 nM. Moreover, the GI50 in test [3] (setting [9]) was 7.2 nM. The “reduction of G317 spheroid size (area at day 10)” value in test [8] is reported as “most potent antiproliferative activities”. In addition, the results for the IC50 in test [4] and in test [5] were 1.8 nM and 3.5 nM, respectively.
In the case of `Nc1nc2cc(-c3nn(C[C@@H]4CCCO4)c4ncnc(N)c34)ccc2o1` [eCF334], the figures for the half-maximal effective concentration (EC50) in test [1] and in test [2] were 138 ± 13 nM and 100 ± 18 nM, respectively. The “GI50 (50% of growth inhibition) in G317” value in test [3] is “identical dose response curves to eCF325”. Moreover, the “EC50 in U87 cells” value in test [6] (setting [10]) is “identical dose response curves to that of eCF325”. The “EC50 in T98 cells” value in test [7] (setting [10]) is on record as “identical dose response curves to that of eCF325”.
Take `CC(C)n1nc(-c2ccc3oc(N)nc3c2)c2c(N)ncnc21` [INK128, sapanisertib, reference compound]: in test [3] (setting [9]), the GI50 is 9.3 nM. Besides, the “reduction of G317 spheroid size (area at day 10)” value in test [8] is recorded as “most potent antiproliferative activities”.
With `CNc1ncc2c(-c3ccc4oc(N)nc4c3)nn(CC3CCCC3)c2n1` [eDB001], the “activity (EC50) of novel compounds in U87, in words” value in test [6] is “high activity”. In test [7], the “activity (EC50) of novel compounds in T98, in words” value is listed as “high activity”.
`Nc1nc2cc(-c3nn(C[C@H]4CCCO4)c4ncnc(N)c34)ccc2o1` [eCF333]: the 50% effective concentration (EC50) in test [1] was found to be 131 ± 10 nM; in test [2], 88 ± 14 nM. Besides, in test [3], the “GI50 (50% of growth inhibition) in G317” value is listed as “identical dose response curves to eCF325”. Besides, in test [6] (setting [10]), the “EC50 in U87 cells” value was “identical dose response curves to that of eCF325”. The “EC50 in T98 cells” value in test [7] (setting [10]) is reported as “identical dose response curves to that of eCF325”.
In the case of “2-(1H-Indazol-4-yl)-6-(4-methanesulfonyl-piperazin-1-ylmethyl)-4-morpholin-4-yl-thieno[3,2-d]pyrimidine [GDC0941, reference compound]”, in test [6] (1 to 1,000 nM, Fig. 3), the “activity (EC50) in U87 cells, in words” value is recorded as “low µM activity”. Moreover, in test [7] (1 to 1,000 nM, Fig. 3), the “activity (EC50) against T98, in words” value is recorded as “sub-µM activity”.
